Laboratory results from article PMC12270203, “The ExoGAN generative AI framework enables extracellular vesicle-based immunotherapy” (Research Square, 2025).
Where no end group is shown, it is not given here.

Columns and labels:
[1] = tested on: surface HLA*A02:01 on engineered K562 cells (K+); assay: Flow cytometry peptide exchange / antigen presentation assay on K562 cells; type: cell-based, human; conditions: 1 uM AF555 N-terminal tagged peptide, 5 uM GL dipeptide, 1 uM brefeldin A, 3 hours, N=4
Method: (K+) that only expresses the HLA*A02:01 allele (see Methods).
To validate ExoGAN at the cellular level, we used engineered K562[53] cells (K+) that only express surface HLA*A02:01. Native K562 cells (K−) and K+ cells were grown in complete 1640-RPMI (Gibco) media and harvested at 1 x 10^6 cells. Based on the method reported by Saini et al.[70], cells were incubated with 1 uM AF555 N-terminal tagged peptides with or without the 5 uM GL dipeptide in 1 uM brefeldin A for 3 hours in a 96 well plate. Total volume was 200 uL per well. Cells were washed 3x and subjected to flow cytometry for HLA*A02:01 affinity.

DMF5 TCR on J+ cells = assay: J+ cell immunostimulation by peptide-engineered APC-EVs; type: cell-based, human; conditions: 2x10^9 particles, 24 hours
Method: We designed EVs derived from K+ cells with ExoGAN-designed peptides to precisely activate J+ cells expressing the melanoma TCR, DMF5.
100 uL of the isolate solution was combined with a 100 uL mastermix solution containing 5 uM GL dipeptide and 1 uM peptide. The 200 uL solution was incubated on a revolver at 4°c for 1.5 hours, following purification by ultrafiltration using a 10k MWCO column into a 30 uL solution. 10 uL was used for zeta potential, nano flow cytometry to assess peptides binding onto HLA-A*02:01 and 10 uL was used to assess CD69 expression and IL-2 secretion from J+ cells. To measure J+ functionality, 2x10^5 J+ cells in 190 uL were added to a 96 round bottom well plate, followed by adding the 10 uL isolate solution. 24 hours later, CD69 was evaluated with flow cytometry

[2] = biological target: HLA-A*02:01 on engineered K562 cells (K+) and on extracellular vesicles isolated from them (human); assay: nano flow cytometry on extracellular vesicles; EVs isolated from K+ cells incubated with 1 uM AF647-tagged peptide and 5 uM GL dipeptide, ultrafiltered (10k MWCO), stained with an AF488 HLA-A*02:01 antibody; NanoFCM

Molecule: FLIDLAFLI [IEDB, reference compound]
- peptide presentation on K+ cells (AF555 median fluorescent intensity) [1]: most potent peptide binders

Molecule: FLIHSRNHD [Exo_1]
- CD69 median fluorescent intensity of J+ cells (DMF5 TCR on J+ cells; 2x10^5 J+ cells, flow cytometry, N=4): outperformed MART-1
- IL-2 secretion of J+ cells (DMF5 TCR on J+ cells; J+ cells, ELISA, Dunnett's test corrected one-way ANOVA, p <0.05): significantly more

Molecule: CLICMDMVV [Exo_4]
- peptide presentation on K+ cells (AF555 median fluorescent intensity) [1]: most potent peptide binders

B1: Exo_3, AF647-tagged (peptide)
peptide: AAICTLLYD
modifications: also: AF647-tagged, position not given here
- percent peptide binding [2]: 100%

B2: Exo_1, AF647-tagged (peptide)
peptide: FLIHSRNHD
modifications: also: AF647-tagged, position not given here
- percent peptide binding [2]: 100%

B3: Exo_4, AF647-tagged (peptide)
peptide: CLICMDMVV
modifications: cysteine pairing not given here; also: AF647-tagged, position not given here
- percent peptide binding [2]: 100%

B4: Exo_2, AF647-tagged (peptide)
peptide: HHMNMSMSK
modifications: also: AF647-tagged, position not given here
- percent peptide binding [2]: 100%
